According to ChEMBL document CHEMBL3046513, “Synthesis, characterization, and biological evaluation of some N-aryl hydrazones and their 2,3-disubstituted-4-thiazolidinone derivatives” (Med Chem Res, 2013):
In brackets after ≈: the same amount, converted by molar mass. Activity calls are given as the source filed them. No cut-off for these calls is given here.

Columns and labels:
Candida albicans [1] = experiment: Antifungal activity against Candida albicans assessed as growth inhibition by serial plate dilution method; format: functional
Bacillus cereus = experiment: Antibacterial activity against Bacillus cereus assessed as growth inhibition by serial plate dilution method; format: functional
Pseudomonas aeruginosa = experiment: Antibacterial activity against Pseudomonas aeruginosa ATCC 27853 assessed as growth inhibition by serial plate dilution method; format: functional
Staphylococcus aureus = experiment: Antibacterial activity against Staphylococcus aureus ATCC 25923 assessed as growth inhibition by serial plate dilution method; format: functional
Escherichia coli = experiment: Antibacterial activity against Escherichia coli ATCC 25922 assessed as growth inhibition by serial plate dilution method; format: functional
Mus musculus [2] = experiment: Analgesic activity in Mus musculus […] albino (mouse) assessed as time taken to tail withdrawl at 100 mg/kg, po administered through intragastric tube after 180 min by tail flick test (reference value: 1.363 +/- 0.1297 secs); format: functional
Mus musculus [3] = experiment: Analgesic activity in Mus musculus […] albino (mouse) assessed as time taken to tail withdrawl at 100 mg/kg, po administered through intragastric tube after 120 min by tail flick test (reference value: 1.363 +/- 0.1297 secs); format: functional
Mus musculus [4] = experiment: Analgesic activity in Mus musculus […] albino (mouse) assessed as time taken to tail withdrawl at 100 mg/kg, po administered through intragastric tube after 60 min by tail flick test (reference value: 1.363 +/- 0.1297 secs); format: functional
Rattus norvegicus [5] = experiment: Anti-inflammatory activity in Rattus norvegicus (rat) assessed as decrease in carrageenan-induced paw edema at 100 mg/kg, po administered 30 min prior to carrageenan challenge measured after 180 min (reference value: 2.275 +/- 0.1181 mm); format: functional
Rattus norvegicus [6] = experiment: Anti-inflammatory activity in Rattus norvegicus (rat) assessed as decrease in carrageenan-induced paw edema at 100 mg/kg, po administered 30 min prior to carrageenan challenge measured after 120 min (reference value: 2.375 +/- 0.1436 mm); format: functional
Rattus norvegicus [7] = experiment: Anti-inflammatory activity in Rattus norvegicus (rat) assessed as decrease in carrageenan-induced paw edema at 100 mg/kg, po administered 30 min prior to carrageenan challenge measured after 60 min (reference value: 2.175 +/- 0.1797 mm); format: functional
[8] = system: Radical scavenging activity; experiment: Antioxidant activity assessed as inhibition of DPPH radical generation at 200 to 800 ug/mL after 20 min by spectrophotometric analysis; format: functional
Candida albicans [9] = experiment: Ratio of fluconazole MIC to compound MIC for Candida albicans; format: functional
Mus musculus [10] = experiment: Acute toxicity in Mus musculus Swiss albino (mouse) assessed as behavioral changes at 500 to 2500 mg/kg, po after 4 to 24 hr; format: organism-based; set-up: route oral; settings: in vivo
Mus musculus [11] = experiment: Acute toxicity in Mus musculus Swiss albino (mouse) assessed as mortality at 500 to 2500 mg/kg, po after 4 to 24 hr; format: organism-based; set-up: route oral; settings: in vivo
[12] = system: Radical scavenging activity; experiment: Antioxidant activity assessed as inhibition of DPPH radical generation at 800 ug/mL after 20 min by spectrophotometric analysis relative to control; format: functional
[13] = system: Radical scavenging activity; experiment: Antioxidant activity assessed as inhibition of DPPH radical generation at 400 ug/mL after 20 min by spectrophotometric analysis relative to control; format: functional
[14] = system: Radical scavenging activity; experiment: Antioxidant activity assessed as inhibition of DPPH radical generation at 200 ug/mL after 20 min by spectrophotometric analysis relative to control; format: functional

| Compound | MIC (Candida albicans [1]) [µg/mL] | MIC (Bacillus cereus) [µg/mL] | MIC (Pseudomonas aeruginosa) [µg/mL] | MIC (Staphylococcus aureus) [µg/mL] | MIC (Escherichia coli) [µg/mL] | Time (Mus musculus [2]) [s] | Time (Mus musculus [3]) [s] | Time (Mus musculus [4]) [s] | Activity (Rattus norvegicus [5]) [mm] | Activity (Rattus norvegicus [6]) [mm] | Activity (Rattus norvegicus [7]) [mm] | inhibition [8] | Ratio (Candida albicans [9]) | Activity (Mus musculus [10]) | Activity (Mus musculus [11]) | inhibition [12] [%] | inhibition [13] [%] | inhibition [14] |
| --- | --- | --- | --- | --- | --- | --- | --- | --- | --- | --- | --- | --- | --- | --- | --- | --- | --- | --- |
| COc1ccc(Br)c(C(=O)NN2C(=O)CSC2c2ccc(O)c(OC)c2)c1 (configuration not stated) | 12.5 (≈ 27.6 µM) | 6.25 (≈ 13.8 µM) | 6.25 (≈ 13.8 µM) | 6.25 (≈ 13.8 µM) | 12.5 (≈ 27.6 µM) | 2.841 | 3.334 | 3.468 | 1.78 | 1.77 | 1.528 | inactive |  |  |  |  |  |  |
| COc1ccc(Br)c(C(=O)NN2C(=O)CSC2c2ccc(C)cc2)c1 (configuration not stated) | 6.25 (≈ 14.8 µM) | 12.5 (≈ 29.7 µM) | 12.5 (≈ 29.7 µM) | 6.25 (≈ 14.8 µM) | 12.5 (≈ 29.7 µM) | 2.225 | 2.088 | 2.038 | 1.95 | 1.9 | 1.525 | inactive |  |  |  |  |  |  |
| COc1ccc(Br)c(C(=O)NN2C(=O)CSC2c2ccccc2OC)c1 (configuration not stated) | 6.25 (≈ 14.3 µM) | 6.25 (≈ 14.3 µM) | 6.25 (≈ 14.3 µM) | 6.25 (≈ 14.3 µM) | 12.5 (≈ 28.6 µM) | 2.238 | 2.075 | 2.175 | 2.075 | 1.95 | 1.825 | inactive |  |  |  |  |  |  |
| COc1ccc(Br)c(C(=O)NN2C(=O)CSC2c2cccc(Cl)c2)c1 (configuration not stated) | 1.56 (≈ 3.54 µM) | 6.25 (≈ 14.1 µM) | 6.25 (≈ 14.1 µM) | 12.5 (≈ 28.3 µM) | 12.5 (≈ 28.3 µM) | 2.438 | 2.8 | 2.825 | 1.6 | 1.65 | 1.575 |  | 5 | Non-toxic | Non-toxic | 59.5 | 58.5 | 57.6% |
| COc1ccc(C2SCC(=O)N2NC(=O)c2cc(OC)ccc2Br)cc1 (configuration not stated) | 6.25 (≈ 14.3 µM) | 6.25 (≈ 14.3 µM) | 6.25 (≈ 14.3 µM) | 6.25 (≈ 14.3 µM) | 12.5 (≈ 28.6 µM) | 2.513 | 2.575 | 2.388 | 1.875 | 1.75 | 1.6 |  |  |  |  | 59.5 | 58.2 | 57.5% |
| COc1ccc(Br)c(C(=O)NN2C(=O)CSC2c2ccccc2)c1 (configuration not stated) | 6.25 (≈ 15.3 µM) | 25 (≈ 61.4 µM) | 12.5 (≈ 30.7 µM) | 25 (≈ 61.4 µM) | 12.5 (≈ 30.7 µM) | 2.425 | 3.563 | 3.675 | 1.75 | 1.65 | 1.575 |  |  |  |  | 41.6 | 18.1 | 4.3% |
| COc1ccc(Br)c(C(=O)N/N=C\c2ccccc2)c1 | 1.56 (≈ 4.69 µM) | 12.5 (≈ 37.5 µM) | 12.5 (≈ 37.5 µM) | 12.5 (≈ 37.5 µM) | 12.5 (≈ 37.5 µM) |  |  |  |  |  |  |  | 5 | Non-toxic | Non-toxic |  |  |  |
| COc1ccc(Br)c(C(=O)NN2C(=O)CSC2c2ccccc2O)c1 (configuration not stated) | 3.12 (≈ 7.38 µM) | 12.5 (≈ 29.5 µM) | 6.25 (≈ 14.8 µM) | 6.25 (≈ 14.8 µM) | 12.5 (≈ 29.5 µM) | 2.235 | 3.623 | 3.546 | 2.081 | 1.98 | 1.88 | inactive |  |  |  |  |  |  |
| COc1ccc(Br)c(C(=O)NN2C(=O)CSC2c2cccnc2)c1 (configuration not stated) | 3.12 (≈ 7.65 µM) | 6.25 (≈ 15.3 µM) | 6.25 (≈ 15.3 µM) | 6.25 (≈ 15.3 µM) | 6.25 (≈ 15.3 µM) | 2.938 | 3.6 | 3.25 | 1.9 | 1.75 | 1.45 |  |  |  |  | 25.1 | 23.5 | 21.6% |
| COc1ccc(Br)c(C(=O)NN2C(=O)CSC2c2ccc(-c3ccccc3)cc2)c1 (configuration not stated) | 6.25 (≈ 12.9 µM) | 6.25 (≈ 12.9 µM) | 6.25 (≈ 12.9 µM) | 12.5 (≈ 25.9 µM) | 6.25 (≈ 12.9 µM) | 3.113 | 3.313 | 2.988 | 2.075 | 1.875 | 1.45 |  |  |  |  | 62.5 | 39.9 | 15.3% |
| COc1ccc(Br)c(C(=O)NN2C(=O)CSC2c2ccc([N+](=O)[O-])cc2)c1 (configuration not stated) | 6.25 (≈ 13.8 µM) | 6.25 (≈ 13.8 µM) | 12.5 (≈ 27.6 µM) | 6.25 (≈ 13.8 µM) | 6.25 (≈ 13.8 µM) | 2.663 | 3.263 | 3.375 | 1.975 | 1.8 | 1.45 |  |  |  |  | 13 | 5.81 | inactive |
| COc1ccc(Br)c(C(=O)NN2C(=O)CSC2c2ccc(O)cc2)c1 (configuration not stated) | 6.25 (≈ 14.8 µM) | 12.5 (≈ 29.5 µM) | 6.25 (≈ 14.8 µM) | 12.5 (≈ 29.5 µM) | 6.25 (≈ 14.8 µM) | 2.532 | 2.775 | 2.675 | 2.048 | 1.899 | 1.89 |  |  |  |  | 58.3 | 58 | 57.8% |
